One compound from patent US10973831B2, “Fluoropiperidine compounds as pure 5-HT 6 receptor antagonists” (SUVEN LIFE SCIENCES LIMITED, priority 2017, dated 2021) can be followed below.

For assay [1], the system named is Male Wistar rats. Description: Object recognition task model. The note with it: rat, 0.1 mg/kg, p.o. It counts as in vivo. The procedure:
The cognition-enhancing properties of compounds of this invention were estimated using an animal model of cognition i.e., object recognition task.
Male Wistar rats (˜230-280 grams) were used as experimental animals. Four animals were housed in each cage. Animals were kept on 20% food deprivation before one day and given water ad libitum throughout the experiment and maintained on a 12 hours light/dark cycle. The rats were habituated to individual arenas for […] in the absence of any objects.
One group of 12 rats received vehicle (1 mL/kg) orally and another set of animals received compound of the formula (I) orally thirty minutes prior to familiar (T1) and choice trial (T2).
The experiment was carried out in a 50×50×50 cm open field made up of acrylic. During the familiarization phase (T1), the rats were placed individually in the open field for 3 minutes, in which two identical objects (plastic bottles, 12.5 cm height×5.5 cm diameter) covered in yellow masking tape alone (a1 and a2) were positioned in two adjacent corners (10 cm from the walls). After 24 hours of the (T1) trial, the same rats were placed in the same arena as they were placed in T1 trial. During the choice phase (T2) rats were allowed to explore the open field for 3 minutes in presence of one familiar object (a3) and one novel object (b) (Amber color glass bottle, 12 cm high and 5 cm in diameter). During the T1 and T2 trial, explorations of each object (defined as sniffing, licking, chewing or having moving vibrissae whilst directing the nose towards the object at a distance of less than 1 cm) were recorded separately by stopwatch.
T1 is the total time spent exploring the familiar objects (a1+a2).
T2 is the total time spent exploring the familiar object and novel object (a3+b).

The test system of assay [2] is extracellular levels of acetylcholine in ventral hippocampus. Nature of the assay: Acetylcholine modulation in ventral hippocampus (microdialysis). The note with it: Example 1 10 mg/kg; for acetylcholine peak levels, % of pre-dose levels: p.o. in combination with donepezil 1 mg/kg, s.c. It counts as in vivo, male Wistar rats. The source says:
Four groups of male Wistar rats (240-300 g body weight) were stereotaxically implanted with a microdialysis guide cannula in ventral hippocampus (AP: −5.2 mm, ML: +5.0 mm, DV: −3.8 mm) under isoflurane anesthesia. Co-ordinates were taken according to atlas for the rat brain (Paxinos and Watson 2004) with reference points taken from bregma and vertical from the skull. […] After surgical recovery of 4-5 days, male Wistar rats were connected to dual quartz lined two-channel liquid swivel (Instech, UK) on a counter balance lever arm, which allowed unrestricted movements of the animal. […] On the day of study, probe was perfused with artificial cerebrospinal fluid (aCSF; NaCl 147 mM, KC13 mM, MgCl2 1 mM, CaCl2. 2H2O 1.3 mM, NaH2PO4.2H2O 0.2 mM and Na2HPO4.7H2O 1 mM, pH 7.2) at a flow rate of 1.5 μL/min and a stabilization period of 2 h was maintained. […] Dialysate samples were collected for an additional period of 4 h post treatment of example 1. Dialysates were stored below −50° C. prior to analysis. Acetylcholine in dialysate was quantified using LC-MS/MS method in the calibration range of 0.099 nmol/L-70.171 nmol/L. […] Incorrect probe placement was considered as criteria to reject the data from animal.

Turning to `Cl.O=S(=O)(c1ccccc1)c1ccc2c(c1)OCCN2C1CCNCC1F` (single isomer, unassigned; peak iii) [Example 1, 7-Phenylsulfonyl-4-(3-fluoropiperidin-4-yl)-3,4-dihydro-2H-benzo[1,4]oxazine hydrochloride (Peak III)], the “Exploration time mean ± S.E.M, Familiar object” value in assay [1] (choice trial T2) came out at 7.03 ± 1.1 s. The “Exploration time mean ± S.E.M, Novel object” value in assay [1] (choice trial T2) amounted to 12.16 ± 0.72 s. The Inference result in assay [1] (object recognition task) was “Active”. In addition, the “Mean area under the curve values (AUC) of percent change in acetylcholine” value was “significantly higher” in assay [2] (p.o. + donepezil + memantine, compared to donepezil and memantine combination); “significantly higher” in assay [2] (p.o. + donepezil, compared to donepezil 1 mg/kg, s.c. alone). The “acetylcholine peak levels, % of pre-dose levels” value in assay [2] was determined as 1445±247%; in assay [2] (s.c. and memantine 1 mg/kg) it was 2822±415%.
